# In patent US6362369B1, “Phthalic acid diamide derivatives fluorine-containing aniline compounds as starting material, agricultural and horticultural insecticides, and a method for application of the insecticides” (Nihon Nohyaku Co., Ltd., priority 1997, dated 2002):
# System: diamondback moth (Plutella xylostella)
# Assay: Insecticidal effect on diamondback moth (Test Example 1)
# Assay type: in vivo
# Settings: diamondback moth; judged by the criterion of Test Example 1
# How it was run: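 Eggs laid by adult moths on Chinese cabbage seedlings, which were immersed in test solution, air-dried and kept at 25 °C. Hatched insects counted 6 days after immersion and mortality calculated, with effect graded by criterion; triplicate groups of 10 insects.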
row,Compound,"Insecticidal effect (Test Example 1), judged from mortality"
1,Cc1cc(C(F)(F)C(F)(F)F)ccc1NC(=O)c1c(Cl)cccc1C(=O)N[C@@H](CO)c1ccccc1 [compound 1443],A (100)
2,Cc1cc(C(F)(F)C(F)(F)F)ccc1NC(=O)c1c(Cl)cccc1C(=O)N[C@@H](C)CO [compound 1446],A (100)
3,CCCNC(=O)c1cccc(I)c1C(=O)Nc1ccc(OC(F)F)cc1C [compound 1451],A (100)
4,Cc1cc(OC(F)F)ccc1NC(=O)c1c(I)cccc1C(=O)NC1CC1 [compound 1453],A (100)
5,Cc1cc(C(F)(F)C(F)(F)F)ccc1NC(=O)c1c(Cl)cccc1C(=O)NCc1ccccc1F [compound 1469],A (100)
6,Cc1cc(C(F)(F)C(F)(F)F)ccc1NC(=O)c1cccc(Cl)c1C(=O)NCC(O)c1ccccc1 (stereo not drawn) [compound 1476],A (100)
7,CCNC(=O)c1cccc(F)c1C(=O)Nc1ccc(C(F)(F)C(F)(F)F)cc1F [compound 1511],A (100)
8,CCCNC(=O)c1cccc(F)c1C(=O)Nc1ccc(C(F)(F)C(F)(F)F)cc1F [compound 1513],A (100)
9,CC(C)NC(=O)c1cccc(F)c1C(=O)Nc1ccc(C(F)(F)C(F)(F)F)cc1F [compound 1515],A (100)
10,Cc1cc(C(F)(F)C(F)(F)F)ccc1NC(=O)c1c(I)cccc1C(=O)N[C@@H](C)CO [compound 1518],A (100)
11,Cc1cc(-c2ccc(OC(F)(F)F)cc2)ccc1NC(=O)c1cccc(I)c1C(=O)NC(C)C [compound 1521],A (100)
12,Cc1cc(C(F)(F)C(F)(F)F)ccc1NC(=O)c1c(Cl)cccc1C(=O)NCc1ccc(OC(F)(F)F)cc1 [compound 1577],A (100)
13,Cc1cc(C(F)(F)C(F)(F)F)ccc1NC(=O)c1cccc(Cl)c1C(=O)N(C)Cc1ccccc1F [compound 1579],A (100)
14,Cc1cc(C(F)(F)C(F)(F)F)c(C)cc1NC(=O)c1cccc(I)c1C(=O)NC(C)(C)C [compound 1611],A (100)
15,CC(C)NC(=O)c1c(I)cccc1C(=O)Nc1cccc(-c2csc(C(F)(F)F)n2)c1 [compound 1658],A (100)
16,Cc1cc2c(cc1NC(=O)c1cccc(Cl)c1C(=O)NC(C)C)OC(F)(F)O2 [compound 1661],A (100)
17,CC(C)(C)NC(=O)c1c(I)cccc1C(=O)Nc1ccc2oc(C(F)(F)F)nc2c1Cl [compound 1683],A (100)
18,CC(C)c1cc(C(F)(C(F)(F)F)C(F)(F)F)ccc1NC(=O)c1cccc(I)c1C(=O)NC(C)(C)C [compound 1692],A (100)
19,CCOc1cc(C(F)(C(F)(F)F)C(F)(F)F)ccc1NC(=O)c1cccc(I)c1C(=O)NC(C)(C)C [compound 1694],A (100)
20,Cc1cc(NC(=O)c2cccc(I)c2C(=O)NC(C)C)c(Br)cc1C(F)(C(F)(F)F)C(F)(F)F [compound 1698],A (100)
21,CC(C)NC(=O)c1c(I)cccc1C(=O)Nc1ccc(C(F)(C(F)(F)F)C(F)(F)F)cc1-c1ccccc1 [compound 1767],A (100)
22,Cc1cc(C(F)(F)C(F)(F)F)ccc1NC(=O)c1c(SC(F)(F)F)ccc(Cl)c1C(=O)NC(C)C [compound 1802],A (100)
23,Cc1cc(C(F)(F)C(F)(F)F)ccc1NC(=O)c1cccc([S+]([O-])C(F)(F)F)c1C(=O)NC(C)C (stereo not drawn) [compound 1804],A (100)
24,Cc1cc(C(F)(C(F)(F)F)C(F)(F)F)ccc1NC(=O)c1cccc([S+]([O-])C(F)(F)F)c1C(=O)NC(C)C (stereo not drawn) [compound 1805],A (100)

# Same assay, conditions: diamondback moth; mortality judged by criterion of Test Example 1
row,Compound,"Insecticidal effect, Test Example 1"
1,Cc1cc(C(F)(F)C(F)(F)F)ccc1NC(=O)c1c(Cl)cccc1C(=O)NCCCc1ccccc1 [compound 1332],A (100)
2,Cc1ccccc1CNC(=O)c1cccc(Cl)c1C(=O)Nc1ccc(C(F)(F)C(F)(F)F)cc1C [compound 1338],A (100)
3,Cc1ccc(CNC(=O)c2c(Cl)cccc2C(=O)Nc2ccc(C(F)(F)C(F)(F)F)cc2C)cc1 [compound 1341],A (100)
4,Cc1ccc(CNC(=O)c2cccc(Cl)c2C(=O)Nc2ccc(C(F)(F)C(F)(F)F)cc2C)cc1 [compound 1342],A (100)
5,COc1cccc(CNC(=O)c2c(Cl)cccc2C(=O)Nc2ccc(C(F)(F)C(F)(F)F)cc2C)c1 [compound 1345],A (100)
6,COc1cccc(CNC(=O)c2cccc(Cl)c2C(=O)Nc2ccc(C(F)(F)C(F)(F)F)cc2C)c1 [compound 1346],A (100)
7,COc1ccc(CNC(=O)c2c(Cl)cccc2C(=O)Nc2ccc(C(F)(F)C(F)(F)F)cc2C)cc1 [compound 1347],A (100)
8,COc1ccc(CNC(=O)c2cccc(Cl)c2C(=O)Nc2ccc(C(F)(F)C(F)(F)F)cc2C)cc1 [compound 1348],A (100)
9,Cc1cc(C(F)(F)C(F)(F)F)ccc1NC(=O)c1cccc(Cl)c1C(=O)NCc1ccc(Cl)cc1Cl [compound 1349],A (100)
10,Cc1cc(C(F)(F)C(F)(F)F)ccc1NC(=O)c1cccc(Cl)c1C(=O)NCCc1ccccc1Cl [compound 1356],A (100)
11,Cc1cc(C(F)(F)C(F)(F)F)ccc1NC(=O)c1c(Cl)cccc1C(=O)NC(C)c1ccccc1Cl (stereo not drawn) [compound 1363],A (100)
12,Cc1cc(C(F)(F)C(F)(F)F)ccc1NC(=O)c1c(Cl)cccc1C(=O)NC(C)c1cccc(Cl)c1 (stereo not drawn) [compound 1365],A (100)
13,Cc1cc(C(F)(F)C(F)(F)F)ccc1NC(=O)c1c(Cl)cccc1C(=O)NC(C)c1ccc(Cl)cc1 (stereo not drawn) [compound 1367],A (100)
14,Cc1cc(C(F)(F)C(F)(F)F)ccc1NC(=O)c1cccc(Cl)c1C(=O)NCCOc1ccccc1Cl [compound 1368],A (100)
15,Cc1cc(C(F)(F)C(F)(F)F)ccc1NC(=O)c1cccc(Cl)c1C(=O)NCCOc1ccc(Cl)cc1 [compound 1372],A (100)
16,Cc1cc(C(F)(F)C(F)(F)F)ccc1NC(=O)c1c(Cl)cccc1C(=O)NCCOc1ccc(Cl)cc1 [compound 1373],A (100)
17,Cc1cc(C(F)(F)C(F)(F)F)ccc1NC(=O)c1cccc(Cl)c1C(=O)NCCOc1ccccc1 [compound 1374],A (100)
18,Cc1cc(C(F)(F)C(F)(F)F)ccc1NC(=O)c1cccc(Cl)c1C(=O)NCCNc1ccccc1 [compound 1376],A (100)
19,Cc1cc(C(F)(F)C(F)(F)F)ccc1NC(=O)c1ccccc1C(=O)NC(CO)c1ccccc1 (stereo not drawn) [compound 1379],A (100)
20,Cc1cc(C(F)(F)C(F)(F)F)ccc1NC(=O)c1c(Cl)cccc1C(=O)NCc1ccncc1 [compound 1395],A (100)
21,Cc1cc(C(F)(F)C(F)(F)F)ccc1NC(=O)c1ccccc1C(=O)NCC(O)Cc1ccccc1 (stereo not drawn) [compound 1398],A (100)
22,Cc1cc(C(F)(F)C(F)(F)F)ccc1NC(=O)c1c(I)cccc1C(=O)NCc1ccccc1 [compound 1401],A (100)
23,Cc1cc(C(F)(F)C(F)(F)F)ccc1NC(=O)c1cccc(Cl)c1C(=O)NC(CO)c1ccc(-c2ccccc2)cc1 (stereo not drawn) [compound 1412],A (100)
24,Cc1cc(OC(F)F)ccc1NC(=O)c1cccc(Cl)c1C(=O)NCc1ccccc1 [compound 1421],A (100)
25,Cc1cc(OC(F)F)ccc1NC(=O)c1cccc(Cl)c1C(=O)NCc1ccccc1Cl [compound 1423],A (100)
26,Cc1cc(OC(F)F)ccc1NC(=O)c1c(I)cccc1C(=O)NCc1ccccc1 [compound 1431],A (100)
27,Cc1ccccc1CNC(=O)c1c(I)cccc1C(=O)Nc1ccc(OC(F)F)cc1C [compound 1434],A (100)
28,Cc1cc(OC(F)F)ccc1NC(=O)c1cccc(I)c1C(=O)N(C)Cc1ccccc1 [compound 1440],A (100)
29,Cc1cc(C(F)(F)C(F)(F)F)ccc1NC(=O)c1cccc(Cl)c1C(=O)N[C@@H](CO)c1ccccc1 [compound 1442],A (100)

# System: rice leafroller (Cnaphalocrocis medinalis)
# Assay: Insecticidal effect on rice leafroller (Test Example 3)
# Assay type: in vivo
# Settings: 500 ppm; rice lamina immersed; third-instar larvae of rice leafroller; four days after inoculation; 25° C., humidity 70%
# Protocol: Insecticidal effect on rice leafroller (Cnaphalocrocis medinalis)
# After air-drying, the lamina was placed in a plastic Petri dish with a diameter of 9 cm whose bottom had been covered with a wetted filter paper. The lamina was inoculated with third-instar larvae of rice leafroller, after which the dish was allowed to stand in a room thermostated at 25° C. and having a humidity of 70%. Four days after the inoculation, the dead and alive were counted and the insecticidal effect was judged according to the criterion shown in Test Example 1. The test was carried out with triplicate groups of 10 insects.
row,Compound,"Insecticidal effect, Test Example 3"
1,CC(C)NC(=O)c1ccccc1C(=O)Nc1ccc(C(F)(F)C(F)(F)C(F)(F)C(F)(F)F)cc1 [compound 28],A (100)
2,Cc1ccc(NC(=O)c2ccccc2C(=O)NC(C)C)c(C)c1 [compound 44],A (100)
3,COC(=O)c1ccc(NC(=O)c2ccccc2C(=O)NC(C)C)c(C)c1 [compound 71],D (79-50)
4,CCOP(=O)(OCC)c1ccc(NC(=O)c2ccccc2C(=O)NC(C)C)c(C)c1 [compound 81],A (100)
5,CC(C)NC(=O)c1c(I)cccc1C(=O)Nc1ccc(C(F)(F)F)cc1 [compound 349],A (100)
6,CC(C)NC(=O)c1c(I)cccc1C(=O)Nc1ccc(OC(F)(F)F)cc1 [compound 352],A (100)
7,CC(C)NC(=O)c1cccc(I)c1C(=O)Nc1ccc(C(F)(F)F)cc1 [compound 415],A (100)
